Paper PMC5451472, “Novel Locally Active Estrogens Accelerate Cutaneous Wound Healing-Part 2” (Scientific Reports, 2017)

Assays:
[1] = system: MITO-Luc mice (reporter of mitosis); assay: Proliferation in the wound area, in vivo BLI of MITO-Luc mice; set-up: species or system mouse
From the text: Wound healing is a dynamic process consisting of four continuous, overlapping, and precisely programmed phases: hemostasis, inflammation, proliferation and tissue growth (proliferation) and remodeling (maturation). The healing effect of estrogens may be exerted at several levels, certainly the ability of the hormone to accelerate macrophage polarization towards the M2-reparative polarization stage plays a relevant role, however estrogens may also facilitate local cell proliferation and the formation of the granulation tissue, epithelialization, and wound contraction.
The experiments were done with the 1e compound as completely deprived of any activity on the uterus (Fig. 6). […] Photon emission was measured in the wound area at the following time: 0, 24, 48 and 72 hours post-treatment.
ERE-Luc and MITO-Luc mice were ovariectomized at two months of age; the experiment was done 2 weeks after surgery to allow the animals to recover and to decrease the levels of circulating estrogens. The animals were fed ad libitum with a special estrogen free diet (AIN 93 M, Mucedola) (Ciana et al. Endocrinology 2005) and housed in individually ventilated plastic cages within a temperature range of 22–25 °C, relative humidity of 50% ± 10% and under an automatic cycle of 12 h light/dark (lights on at 07:00 am). All animal experimentation was carried out in accordance with the ARRIVE and European Guidelines for Animal Care. All animal experiments were approved by the Italian Ministry of Research and University and controlled by a Departmental panel of experts. For the correct dosage of the compounds, the body weight of the animals (on empty stomach, fasted for at least 12–14 hours) was determined immediately before the treatment.
Ovariectomy was carried out as previously described. Wound healing was done after shaving by VEET depilatory cream a day before the treatment. The 1 cm full-thickness incisional wound was made through the skin and panniculus carnosus muscle of ovariectomized MITO-luc using a surgical scalpel (blade n°10, carbon steel, Swann-Morton Ltd). Round full-thickness wounds were done by cutting out a section of full-thickness skin (around 9 mm in diameter) using fine scissors on the dorsal skin of the isoflurane-anesthetized animal. […]
For the semi-quantitative analysis of in vivo photon emission, animals were injected i.p. with 80 mg/kg of luciferin (Beetle Luciferin Potassium Salt; Promega, Madison, WI, USA) 15 min prior the imaging session. […] Photon emission in selected body areas was measured using the Living Image Software (Caliper, PerkinElmer company). The analysis was done in ventral view: whole body, thymus, hepatic area, abdomen, limbs, vagina and in dorsal view in wound area and expressed as photon/second/cm2/steradiant (p/s/cm2/sr).

[2] = system: MITO-Luc mice; assay: Macrophage count (Iba1 immunohistochemistry) around the wound site; format: in vivo, mouse; details: 200 µg/kg s.c., 72 hours after treatment
Procedure: To better understand whether the healing effect of 1e could be attributed to its anti-inflammatory action, at the end of in vivo imaging (72 hours after treatments) the tissue surrounding the wound was dissected and subjected immunohistochemical analysis using the pan macrophage marker Iba1. […] This observation confirmed that the estrogenic compounds were able to regulate the immune response at local level.
In particular, the criteria for the assignation of granulations value are: 1 = wound bed partially covered with granulation tissue; 2 = thin granulation over the whole wound bed; 3 = thick granulation over the whole wound bed. Evaluation of macrophages was done through a specific antibody and digital image analysis: 4 µm sections from each wound healing sample were immunostained with primary rabbit […] antibody against Iba1 antigen (Wako; #019-19741) to assess the number of macrophages.
The number of positive cells were counted using the ImageJ analysis program (http://rsb.info.nih.gov/ij/) in 400x microscopic fields selected at the periphery of the wound area.

[3] = system: MITO-Luc mice; assay: Wound area measurement in MITO-Luc mice; format: in vivo, mouse; details: 200 µg/kg s.c., 72 hours after treatment (vehicle 50%)
Procedure: To investigate to which extent the increased proliferation observed after the pharmacological treatments was functional to the healing process, we measured the size of the wound (Fig. 9a).
Ovariectomy was carried out as previously described. Wound healing was done after shaving by VEET depilatory cream a day before the treatment. The 1 cm full-thickness incisional wound was made through the skin and panniculus carnosus muscle of ovariectomized MITO-luc using a surgical scalpel (blade n°10, carbon steel, Swann-Morton Ltd). Round full-thickness wounds were done by cutting out a section of full-thickness skin (around 9 mm in diameter) using fine scissors on the dorsal skin of the isoflurane-anesthetized animal. For in vivo treatment the compounds were administered onto the subcutaneous area surrounding the wound by multiple subcutaneous injection, immediately after the generation of the wound.

[4] = target: T1, ERs (Homo sapiens, UniProt P03372); assay: ER transactivation assay in ERE-Luc B17 cells (luciferase reporter); format: cell-based
T1 construct: endogenous in cells; host or cells: MCF-7, clone ERE-Luc B17 (only the luciferase reporter is transfected)
T1 sequence (P03372 1-595): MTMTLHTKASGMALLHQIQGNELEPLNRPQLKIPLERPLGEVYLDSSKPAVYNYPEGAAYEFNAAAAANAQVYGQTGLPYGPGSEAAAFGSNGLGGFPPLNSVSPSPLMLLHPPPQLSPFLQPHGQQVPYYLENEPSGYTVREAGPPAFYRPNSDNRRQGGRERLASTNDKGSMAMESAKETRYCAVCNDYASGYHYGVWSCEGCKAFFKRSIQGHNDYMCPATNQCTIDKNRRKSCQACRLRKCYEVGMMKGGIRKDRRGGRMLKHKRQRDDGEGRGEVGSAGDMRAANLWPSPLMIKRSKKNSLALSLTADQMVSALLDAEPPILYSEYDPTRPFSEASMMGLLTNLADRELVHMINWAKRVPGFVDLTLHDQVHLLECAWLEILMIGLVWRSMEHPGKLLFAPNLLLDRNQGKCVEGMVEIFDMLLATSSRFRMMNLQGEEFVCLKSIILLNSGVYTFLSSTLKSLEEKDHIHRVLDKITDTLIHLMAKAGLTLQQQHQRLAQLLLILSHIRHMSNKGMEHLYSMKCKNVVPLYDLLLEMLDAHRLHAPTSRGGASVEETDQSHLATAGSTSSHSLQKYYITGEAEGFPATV
Procedure: The ability of the novel compounds to transcriptionally activate ERs was tested in ERE-Luc B 17 cells, a clone of the breast cancer cell line MCF-7 stably transfected with a reporter constituted by the luciferase gene driven by an estrogen-regulated synthetic promoter previously generated and tested in our laboratories.
Cells were split twice a week by seeding 2 × 10^6 cells in 100 mm diameter Petri (Corning) dishes.
After 24 h cells were rinsed once with PBS before preparing the protein extract for the determination of luciferase content. Each experiment was carried out in duplicate.
Luciferase enzymatic activity was measured in cells or selected tissue homogenates by a luminometer (Glomax™96 microplate luminometer; Promega) using Promega standard luciferin (Beetle Luciferin Potassium Salt) and expressed as Relative Light Units over 10 sec/μg protein (RLU/μg protein). Proteins concentrations were measured by Bradford.
Analysis of transactivation data and calculation of EC50 values were performed by means of sigmoidal dose-response (variable slope) using PRISM5 software (GraphPad Software Inc.).

[5] = system: ERE-Luc mice; assay: Uterus weight of ERE-Luc mice; format: in vivo, mouse; details: 200 µg/kg s.c., 6 h after treatment, n = 4
From the text: The final study aiming at investigating the systemic effect of the NCE was done by measuring the uterus weight of all treated animal as the golden standard for the quantitative measure of estrogenic compounds.

CCCCOC(=O)CCC#C[C@]1(O)CC[C@H]2[C@@H]3CCc4cc(O)ccc4[C@H]3CC[C@@]21C [1e, 3,17β-Hydroxy-17α-(4′carbobutoxy-1′-butyn-1′-yl)estra-1,3,5-(10)-triene]
increase of photon emission from wound ([1]; 200 µg/kg s.c. around wound, 72 h versus time 0, ovx MITO-Luc): 87%
photon emission from the wound area ([1]; 200 µg/kg s.c., 48 hours after administration): significantly increased
number of macrophages (Iba1 positive) in the wound area lower than in controls [2]: 25%
wound area reduction [3]: 73%
EC50 ([4]; ERE-Luc B17 cells (MCF-7 clone), 24 h, luciferase activity, sigmoidal dose-response, read-out: EC50 (transactivation potency)): 1.3 nM
fold induction at 10 µM ([4]; ERE-Luc B17 cells, 10^-5 M of compound respect to vehicle): 2.6
weight of the uterus versus controls [5]: indistinguishable from controls
